Values after ≈ are worked out from the molar mass of the structure shown. Where a name gives a salt, the structure may show the parent alone. Values belong to the molecule of their own block, whether it stands above or below them.
Experiments:
[1] = system: dictyocaulus; conditions: in vivo; cited from earlier work
[2] = system: filaria; conditions: in vivo; cited from earlier work
[3] = system: isolated guinea pig intestine (histamine); experiment: spasmolytic action against histamine on the isolated guinea pig intestine; design: key to Spasmolytic action against Histamine (ED50): (--): reduction of 10%; --: reduction of 25%; ----: reduction of 50%; .phi.: substantially no action; conditions: histamine 10^-7 g/ml; for IC50: Cavia porcellus, read-out: Spasmolytic action against Histamine (ED50)
Experimental: (§1) The compounds according to the invention were also tested for their influence on coronary through-flow on the heart mechanogram and for their spasmolytic action.
(§2) The latter test was performed on the isolated guinea pig intestine by the method of R. Magnus ("Pflugers Archiv" Vol 102 (1904) p 123).

[4] = system: reserpine ptosis; experiment: reserpine antagonism (reserpine ptosis test); type: in vivo; conditions: for change in vivo at 25 mg/kg: po, 1 hr after 25 mg/kg of substance orally, read-out: % Influence on reserpine ptosis
Experimental: The therapeutic activity of compounds according to the invention was determined by measurement of reserpine antagonism (B. Rubin et al., "J. Pharmacol. exp. Therap." Vol 120 (1957) p 125) and by the effect on the fighting behaviour of fighting mice in the test arrangement of G. Y. Yen et al., (Arch. Int. Pharmacodyn, Vol 123 (1959) p 179).

[5] = acute toxicity (LD50); conditions: in vivo
[6] = system: heart; experiment: influence on the heart mechanogram (heart muscle force); design: key to Action on the heart mechanogram: (--): reduction of 10%; --: reduction of 25%; ----: reduction of 50%; .phi.: substantially no action
Experimental: The compounds according to the invention were also tested for their influence on coronary through-flow on the heart mechanogram and for their spasmolytic action. […]

[7] = system: isolated guinea pig intestine (acetylcholine); experiment: spasmolytic action against acetylcholine on the isolated guinea pig intestine; design: key to Spasmolytic action against Acetylcholine (ED50): (--): reduction of 10%; --: reduction of 25%; ----: reduction of 50%; .phi.: substantially no action; conditions: acetylcholine 10^-7 g/ml; for IC50: Cavia porcellus, read-out: Spasmolytic action against Acetylcholine (ED50)
Experimental: as §1, §2

[8] = system: coronary vessels; experiment: influence on coronary through-flow
Experimental: as §1

[9] = system: isolated guinea pig intestine (BaCl2); experiment: spasmolytic action against barium chloride on the isolated guinea pig intestine; design: key to Spasmolytic action against BaCl2 (ED50): (--): reduction of 10%; --: reduction of 25%; ----: reduction of 50%; .phi.: substantially no action; conditions: barium chloride 10^-4 mg/ml; for IC50: Cavia porcellus, read-out: Spasmolytic action against BaCl2 (ED50)
Experimental: as §1, §2

Structure (SMILES): CCN(CC)C(=O)N1CCN(C)CC1 [4-methylpiperazinocarboxylic acid-(1)-diethylamide citrate]
use against dictyocaulus infections [1]: successfully used
use against filaria infections [2]: successfully used against filaria

Structure (SMILES): O=C(c1cc2ccccc2o1)N1CCN(Cc2ccccc2)CC1 [Compound 1, N-Benzyl-coumarillic acid piperazide]
IC50 [3]: 1 to 10 µg/mL (≈ 3.12 to 31.2 µM)
change in vivo at 25 mg/kg [4]: -50%
LD50 ([5]; ip, i.p. mouse): 320 mg/kg
LD50 ([5]; po, orally, mouse): 2050 mg/kg
Action on the heart mechanogram ([6]; dose 10 (82 g)): .phi.
Action on the heart mechanogram ([6]; dose 30 (82 g)): .phi.
Action on the heart mechanogram ([6]; dose 100 (82 g)): -- (reduction of 25%)
reduction of the heart muscle force ([6]; dose of 100 μg): 25%
IC50 [7]: 10 µg/mL (≈ 31.2 µM)
action on coronary flow / coronary vessels (in words) [8]: considerable increase in the coronary through-flow without subsequent contraction of the vessel
Coronary through-flow: Duration (initial or only value) ([8]; dose 10 (82 g)): 0.5 min
Coronary through-flow: Change (initial or only value) ([8]; dose 30 (82 g)): +38%
Coronary through-flow: Duration (initial or only value) ([8]; dose 30 (82 g)): 1.0 min
Coronary through-flow: Change (initial or only value) ([8]; dose 100 (82 g)): +120%
Coronary through-flow: Duration (initial or only value) ([8]; dose 100 (82 g)): 26.0 min
IC50 [9]: 1 to 10 µg/mL (≈ 3.12 to 31.2 µM)

IC50 [3]: 1 to 10 µg/mL (≈ 2.82 to 28.2 µM)
IC50 [9]: 1 to 10 µg/mL (≈ 2.82 to 28.2 µM)
Structure (SMILES): O=C(c1cc2ccccc2o1)N1CCN(Cc2ccc(Cl)cc2)CC1 [Compound 2, N-(4-chloro)-benzyl-coumarillic acid piperazide]
Spasmolytic action against Acetylcholine (ED50) [7]: >

Structure (SMILES): O=C(c1cc2ccccc2o1)N1CCN(Cc2ccc(Cl)c(Cl)c2)CC1 [Compound 3, N-(3,4-dichlorobenzyl)-coumarillic acid piperazide]
change in vivo at 25 mg/kg [4]: -22%
LD50 ([5]; ip, i.p. mouse): 1000 to 1500 mg/kg

Structure (SMILES): O=C(c1cc2ccccc2o1)N1CCN(Cc2ccc(F)cc2)CC1 [Compound 5, N-(4-fluorobenzyl)-coumarillic acid piperazide]
change in vivo at 25 mg/kg [4]: -50%
LD50 ([5]; ip, i.p. mouse): 100 to 250 mg/kg

Structure (SMILES): O=C(c1cc2ccccc2o1)N1CCN(Cc2cccs2)CC1 [Compound 16, N-thenyl-coumarillic acid piperazide]
Spasmolytic action against Histamine (ED50) [3]: .phi.
change in vivo at 25 mg/kg [4]: -54%
LD50 ([5]; ip, i.p. mouse): 100 to 250 mg/kg
LD50 ([5]; po, orally, mouse): 1980 mg/kg
Spasmolytic action against Acetylcholine (ED50) [7]: .phi.
Spasmolytic action against BaCl2 (ED50) [9]: .phi.

Action on the heart mechanogram ([6]; dose 10 (82 g)): .phi.
Action on the heart mechanogram ([6]; dose 30 (82 g)): .phi.
Structure (SMILES): O=C(c1cc2ccccc2o1)N1CCCN(Cc2ccccc2)CC1 [Compound 17, N-benzyl-coumarillic acid homopiperazide]
Coronary through-flow: Change (initial or only value) ([8]; dose 10 (82 g)): +8%
Coronary through-flow: Duration (initial or only value) ([8]; dose 10 (82 g)): 1.0 min
Coronary through-flow: Change (initial or only value) ([8]; dose 30 (82 g)): +25%
Coronary through-flow: Duration (initial or only value) ([8]; dose 30 (82 g)): 1.0 min

Structure (SMILES): O=C(C1Cc2ccccc2O1)N1CCN(Cc2ccccc2)CC1 (stereo not shown) [Compound 20, N-benzyl-2,3-dihydrocoumarillic acid piperazide]
IC50 [3]: 1 µg/mL (≈ 3.1 µM)
change in vivo at 25 mg/kg [4]: -32%
LD50 ([5]; ip, i.p. mouse): 100 to 150 mg/kg
IC50 [7]: 3 µg/mL (≈ 9.3 µM)
Coronary through-flow: Change (initial or only value) ([8]; dose 10 (82 g)): +25%
Coronary through-flow: Change (initial or only value) ([8]; dose 50 (82 g)): +50%
IC50 [9]: 0.3 µg/mL (≈ 0.93 µM)

IC50 [3]: 0.1 µg/mL (≈ 0.37 µM)
Structure (SMILES): O=C(c1ccco1)N1CCN(Cc2ccccc2)CC1 [Compound 21, N-benzyl-furan-2-carboxylic acid piperazide]
Spasmolytic action against Acetylcholine (ED50) [7]: .phi.
Spasmolytic action against BaCl2 (ED50) [9]: .phi.

Structure (SMILES): O=C(c1ccco1)N1CCN(Cc2ccc(Cl)c(Cl)c2)CC1 [Compound 22, N-3,4-dichlorobenzyl-furan-2-carboxylic acid piperazide]
change in vivo at 25 mg/kg [4]: -23%
LD50 ([5]; ip, i.p. mouse): 250 to 500 mg/kg

Structure (SMILES): CC1=C(C(=O)N2CCN(Cc3ccccc3)CC2)CCCO1 [Compound 24, N-benzyl-[6-methyl-2,3-dihydropyran-5-carboxylic acid]piperazide]
Spasmolytic action against Histamine (ED50) [3]: .phi.
Spasmolytic action against Acetylcholine (ED50) [7]: .phi.
Spasmolytic action against BaCl2 (ED50) [9]: .phi.

IC50 [3]: 1 to 10 µg/mL (≈ 2.71 to 27.1 µM)
Action on the heart mechanogram ([6]; dose 6 (82 g)): (--) (reduction of 10%)
reduction of the heart muscle force ([6]; dose of 30 μg): less than 25%
IC50 [7]: 1 to 10 µg/mL (≈ 2.71 to 27.1 µM)
IC50 [9]: > 10 µg/mL
Structure (SMILES): CC1=C(C(=O)N2CCN(Cc3ccc(Cl)c(Cl)c3)CC2)CCCO1 [Compound 25, N-3,4-dichlorobenzyl-[6-methyl-2,3-dihydropyran-5-carboxylic acid]-piperazide]
Coronary through-flow: Duration (initial or only value) ([8]; dose 6 (82 g)): 8.0 min
Coronary through-flow: Change (initial or only value) ([8]; dose 30 (82 g)): +31%
Coronary through-flow: Duration (initial or only value) ([8]; dose 30 (82 g)): 27.0 min

Structure (SMILES): CC1=C(C(=O)N2CCN(Cc3c(C)cc(C)cc3C)CC2)CCCO1 [Compound 26, N-(2,4,6-Trimethylbenzyl)-N-2-methyl-5,6-dihydro-pyran-3-carbonyl-piperazine-hydrochloride]
Coronary through-flow: Change (initial or only value) ([8]; dose 30 (82 g)): +13%
Coronary through-flow: Duration (initial or only value) ([8]; dose 30 (82 g)): 5 min
Coronary through-flow: Change (initial or only value) ([8]; dose 100 (82 g)): +21%
Coronary through-flow: Duration (initial or only value) ([8]; dose 100 (82 g)): > 12 min

Structure (SMILES): CC1=C(C(=O)N2CCN(Cc3cccs3)CC2)CCCO1 [Compound 28]
Spasmolytic action against Histamine (ED50) [3]: .phi.
Spasmolytic action against Acetylcholine (ED50) [7]: .phi.
Spasmolytic action against BaCl2 (ED50) [9]: .phi.

IC50 [3]: > 10 µg/mL
IC50 [7]: > 10 µg/mL
IC50 [9]: > 10 µg/mL
Structure (SMILES): CC1OCCCC1C(=O)N1CCN(Cc2ccccc2)CC1 (stereo not shown) [Compound 29, N-benzyl-[6-methyl-tetrahydropyran-5-carboxylic acid]-piperazide]

Structure (SMILES): O=C(c1cc2ccccc2[nH]1)N1CCN(Cc2ccccc2)CC1 [Compound 30, N-Benzyl-indole-2-carboxylic acid piperazide]
Coronary through-flow: Change (initial or only value) ([8]; dose 10 (82 g)): +90%
Coronary through-flow: Duration (initial or only value) ([8]; dose 10 (82 g)): 12 min

Structure (SMILES): O=C(c1cccs1)N1CCN(Cc2cccs2)CC1 [Compound 42]
change in vivo at 25 mg/kg [4]: -49%
LD50 ([5]; ip, i.p. mouse): 100 to 250 mg/kg

Structure (SMILES): CN(C)CCCN1c2ccccc2CCc2ccccc21 [Imipramine, 5-(3'-dimethylaminopropyl)-10-11-dihydro-5-H-dibenz-[b,f]-azepine hydrochloride, reference compound]
IC50 [3]: 0.001 µg/mL
activity in reserpine test (in words) ([4]; in vivo): high activity
change in vivo at 25 mg/kg [4]: -76%
Action on the heart mechanogram ([6]; dose 10 (82 g)): -- (reduction of 25%)
Action on the heart mechanogram ([6]; dose 20 (82 g)): -- (reduction of 25%)
Action on the heart mechanogram ([6]; dose 30 (82 g)): ---- (reduction of 50%)
reduction of the heart muscle force ([6]; dose of 10 μg): 25%
reduction of the heart muscle force ([6]; dose of 20 μg): 25%
reduction of the heart muscle force ([6]; dose of 30 μg): 50%
IC50 [7]: 0.01 to 0.1 µg/mL
action on coronary flow / coronary vessels (in words) [8]: initially a brief rise in coronary flow but this changes into a long contraction, and thus damages the heart
Coronary through-flow: Change (initial or only value) ([8]; dose 10 (82 g)): +19%
Coronary through-flow: Change (second value, subsequent contraction) ([8]; dose 10 (82 g)): -18%
Coronary through-flow: Duration (initial or only value) ([8]; dose 10 (82 g)): 0.5 min
Coronary through-flow: Duration (second value, subsequent contraction) ([8]; dose 10 (82 g)): 21 min
Coronary through-flow: Change (initial or only value) ([8]; dose 20 (82 g)): +28%
Coronary through-flow: Change (second value, subsequent contraction) ([8]; dose 20 (82 g)): -29%
Coronary through-flow: Duration (initial or only value) ([8]; dose 20 (82 g)): 0.6 min
Coronary through-flow: Duration (second value, subsequent contraction) ([8]; dose 20 (82 g)): 26 min
Coronary through-flow: Change (initial or only value) ([8]; dose 30 (82 g)): +84%
Coronary through-flow: Change (second value, subsequent contraction) ([8]; dose 30 (82 g)): -22%
Coronary through-flow: Duration (second value, subsequent contraction) ([8]; dose 30 (82 g)): > 10 min
IC50 [9]: 0.1 to 1 µg/mL
